From US20210371374A1, “METAL DI-AMINO ACID CHELATES OR METAL TRI-AMINO ACID CHELATES” (Balchem Corporation, priority 2020, published 2021)
Peptide text beside a SMILES is read from it.

How the values were obtained:
[1] = system: Caco-2 cells; experiment: Cellular uptake in Caco-2 cells, BioVision colorimetric magnesium uptake assay kit; assay type: in vitro ADME; conditions: compared with other magnesium complexes
From the text: 18 MΩ Ultrapure water was obtained in-house.

[2] = Stability of Mg(G3) in solution via 1H NMR; assay type: physicochemical; conditions: 1H NMR in D2O; periods up to 72 hrs
From the text: At 72 hrs, an observable upfield shift occurs, which may be due to isomer formation. There is no observable change in proton integration. NMR taken in D2O.

stability in solution [2] | Compound | cellular uptake in CaCo-2 cell line (FIG. 72) [1]
– | NCC(=O)[O-].NCC(=O)[O-].[Mg+2] [MgBG, magnesium bisglycinate, reference compound] | significantly less cellular uptake than Mg(G3)
– | magnesium diglycine [MgG2] | relatively linear uptake
considerable stability | NCC(=O)NCC(=O)NCC(=O)[O-].[Mg+2].[OH-] [Mg(G3), magnesium 2-[[2-[(2-aminoacetyl)amino]acetyl]amino]acetic acid chelate] (H-Gly-Gly-Gly-OH) | –
